Assay type in all cases: cell-based
Assay [1] addresses HTN-CK2α (Homo sapiens, UniProt P68400). Briefly: Immunoblot of HTN-CK2α O-GlcNAcylation in HEK293T cells co-expressing fOGT. From the text:
Ck2α is a well-studied OGT substrate.^17,25 Its Ser347 is conservatively O-GlcNAcylated and this modification was reported to affect its kinase activity.^16,17 We first co-expressed HTN-Ck2α and fOGT in HEK293T cells at different ratio and found the basal O-GlcNAcylation level of HTN-Ck2α was higher than what we detected in the case of HTN-BRD4. Therefore, a lower ratio of fOGT expression (1:100) was selected for the assessment of OGTAC potency (FIG. 9). […] The induction of specific O-GlcNAcylation on HTN-Ck2α was further confirmed by mass-shift assay. […] To validate the direct binding to both fOGT and HTN-Ck2α is critical, we exploited AP 1867 and rhodamine ligand, which bind to fOGT and HTN-Ck2α respectively, to co-treat with OGTAC-1.
During immunoblotting study, we noticed that even for whole cell lysate (WCL), RL2 antibody band (green) and HTN-CK2α protein band (red) are perfectly overlapped and clearly distinguishable from other bands on blot (FIG. 6B). We assessed the OGTAC treatment effects by quantifying the RL2 signal that is overlapping with HTN-Ck2α in WCL, and found they are corresponding with the results achieved by IP-WB method (FIG. 6C). Therefore, we quantify the intensity of RL2 band that overlapping with HTN-CK2α level instead of IP CK2α in later study.
For each IP reaction, 2.2×10^6 HEK293T cells were seed in 10 cm dish. After cells attached, transfection reagents and plasmids were prepared and added in DMEM. After 24 h transfection, media were replaced by fresh warm complete media with DMSO or probes. For washout study, after 4 h treatment, media with DMSO or OGTAC-4 (500 nM) were replaced by fresh media with DMSO or AP1867 (50 μM) for further incubation. After certain time of OGTACs treatment, cells were collected by cold PBS and lysed by 200 μL complete IP lysis buffer. The lysate was incubated on ice for 20 min, spun down at 14,000 RPM at 4° C. for 15 mins, and the supernatant were collected for bicinchoninic acid (BCA) assay and normalized to a final 2 mg/mL. For input, 20 μL of diluted sample was reacted with equal volume of 10 μM TMR ligand in IP lysis buffer and rotate gently at RT for 15 mins. The remaining samples were subjected to protein A/G magnetic beads (MedChemExpress, HY-K0202), which pre-binding with protein target protein antibody. For samples for LC-MS/MS or HTN-BRD4 mutant constructs. Halo-Trap Magnetic Agarose (Proteintech, otma) was used to incubate with protein lysates. After gentle rotation at 4° C. for at least 16 h, the beads were washed with IP lysis buffer and boiled in 40 μL 2×SDS-loading buffer (Biorad #1610747) for 5 mins to elute proteins from beads. Eluted samples were directly subjected into WB analysis. To get stronger signal of RL2, we used anti-mouse-HRP (Cell signaling, #7076) as secondary antibody for RL2 and anti-rabbit-DyLight 488 (Invitrogen, #35552) as secondary antibody for total target proteins.
In general, cells (from 12 well plate) were lysed by 80 μl RIPA lysis buffer (Thermo Scientic 89901) supplemented with 20 μM OGA inhibitor (Thaimet G, Bidepharm BD571819) and 100X protease inhibitor (MedChemExpress, HY-K0010), incubated on ice for 20 min, spun down at 14,000 RPM at 4° C. for 15 mins, and the supernatant were collected for bicinchoninic acid (BCA) assay and normalizedeto a final 2 mg/mL concentration. About 30 μg of protein samples were loaded for sodium dodecyl sulfatepolyacrylamide gel electrophoresis (SDS-PADE) and blotted with indicated antibodies.

For assay [2], the target named is T1, HTN-BRD4 (Homo sapiens, UniProt O60885+P62942, F37V).
T1 construct: HaloTag fragment; expressed in transfected cells; host or cells: HEK293T
Briefly: IP-WB of HTN-BRD4 O-GlcNAcylation with truncated 0tfOGT. Particulars: 0tfOGT:HTN-BRD4 system, 4 h. As for the experimental part: (§1) FIGS. 7A-7E: Specificity and reversibility of OGTAC strategy. […] (B), Constructs of fOGT with 13.5 (rounded to 13) TPR and 0TPR-fOGT (0tfOGT). (C). […] (D), Dose-dependent O-GlcNAcylation profile of HTN-BRD4 by OGTAC-4 treatment. HEK293T cells expressing HTN-BRD4:0tfOGT=1:0.05 were treated with an increasing concentration of OGTAC-4 for 4 h. Then, the O-GlcNAcylation level of HTN-BRD4 was assessed by immunoblot after IP using BRD4 antibody. All quantifications are shown as mean±s.e.m. of n=3 biologically independent experiments. (E), Reversible effect of OGTAC-4 on HTN-BRD4 can be achieved by addition of AP1867. HEK293T cells expressing HTN-BRD4:0tfOGT=1:0.05 were pretreated with OGTAC-4 (500 nM) or DMSO for 4 h, and culturing media were replaced by fresh media with DMSO or AP1867 (50 μM) for the indicated time. The quantifications in right panel were conducted by the normalizing the fold-change (OGTAC-4/DMSO) for each post-washout time point to the value of 4 h pre-treatment. All quantifications are shown as mean±s.e.m. of 3 independent biological repeats. Statistical significance was calculated with ordinary one-way ANOVA comparing samples with different transfection conditions or OGTAC-treatment. ns, p≥0.05; *p<0.05; **p<0.01; ***p<0.001; ****p<0.0001.
We next applied OGTAC-4 to the 0tfOGT:HTN-BRD4 system, resulting in an 5-fold increase in O-GlcNAc level on BRD4. […]

Assay [3] concerns the target T2, HTN-BRD4 and 0tfOGT (Homo sapiens, UniProt O60885+P62942, F37V).
T2 construct: HaloTag fragment; 0TPR(463-1046)-; expressed in transfected cells; host or cells: HEK293T
Briefly: Washout / reversibility study, HTN-BRD4:0tfOGT. The note with it: 500 nM 4 h pretreatment, then fresh media. How it is done: as §1
To assess the potential application of our OGTAC strategy in downstream biological studies, we investigated the reversibility of OGTACs. […] Additionally. the O-GlcNAc level of BRD4 returned to baseline after 6 hours of AP1867 treatment, confirming the reversibility of the induction effect (FIG. 7E).
For each IP reaction, 2.2×10^6 HEK293T cells were seed in 10 cm dish. After cells attached, transfection reagents and plasmids were prepared and added in DMEM. After 24 h transfection, media were replaced by fresh warm complete media with DMSO or probes. For washout study, after 4 h treatment, media with DMSO or OGTAC-4 (500 nM) were replaced by fresh media with DMSO or AP1867 (50 μM) for further incubation. After certain time of OGTACs treatment, cells were collected by cold PBS and lysed by 200 μL complete IP lysis buffer. […]

HTN-CK2α, sequence (P68400 with tags, fused parts or gaps): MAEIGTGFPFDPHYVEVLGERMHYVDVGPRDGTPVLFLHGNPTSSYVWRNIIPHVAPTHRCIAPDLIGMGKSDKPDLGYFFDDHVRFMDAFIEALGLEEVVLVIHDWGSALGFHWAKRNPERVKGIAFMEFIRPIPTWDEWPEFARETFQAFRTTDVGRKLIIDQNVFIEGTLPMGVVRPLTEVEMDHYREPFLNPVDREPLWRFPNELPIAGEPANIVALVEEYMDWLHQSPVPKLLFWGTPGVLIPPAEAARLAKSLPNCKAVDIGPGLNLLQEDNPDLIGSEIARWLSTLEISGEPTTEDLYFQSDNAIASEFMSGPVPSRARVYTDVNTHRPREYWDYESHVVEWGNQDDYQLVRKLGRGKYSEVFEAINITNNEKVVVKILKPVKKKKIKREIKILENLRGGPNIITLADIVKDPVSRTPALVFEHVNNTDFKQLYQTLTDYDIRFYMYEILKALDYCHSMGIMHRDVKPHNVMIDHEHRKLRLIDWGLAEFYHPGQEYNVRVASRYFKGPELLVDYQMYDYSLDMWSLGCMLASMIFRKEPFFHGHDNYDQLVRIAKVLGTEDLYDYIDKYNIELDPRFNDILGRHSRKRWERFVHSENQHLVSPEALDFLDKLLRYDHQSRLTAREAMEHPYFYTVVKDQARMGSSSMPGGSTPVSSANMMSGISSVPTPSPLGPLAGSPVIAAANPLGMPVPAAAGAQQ
HTN-CK2α, sequence (P62942+O15294 fused P62942:F37V partner): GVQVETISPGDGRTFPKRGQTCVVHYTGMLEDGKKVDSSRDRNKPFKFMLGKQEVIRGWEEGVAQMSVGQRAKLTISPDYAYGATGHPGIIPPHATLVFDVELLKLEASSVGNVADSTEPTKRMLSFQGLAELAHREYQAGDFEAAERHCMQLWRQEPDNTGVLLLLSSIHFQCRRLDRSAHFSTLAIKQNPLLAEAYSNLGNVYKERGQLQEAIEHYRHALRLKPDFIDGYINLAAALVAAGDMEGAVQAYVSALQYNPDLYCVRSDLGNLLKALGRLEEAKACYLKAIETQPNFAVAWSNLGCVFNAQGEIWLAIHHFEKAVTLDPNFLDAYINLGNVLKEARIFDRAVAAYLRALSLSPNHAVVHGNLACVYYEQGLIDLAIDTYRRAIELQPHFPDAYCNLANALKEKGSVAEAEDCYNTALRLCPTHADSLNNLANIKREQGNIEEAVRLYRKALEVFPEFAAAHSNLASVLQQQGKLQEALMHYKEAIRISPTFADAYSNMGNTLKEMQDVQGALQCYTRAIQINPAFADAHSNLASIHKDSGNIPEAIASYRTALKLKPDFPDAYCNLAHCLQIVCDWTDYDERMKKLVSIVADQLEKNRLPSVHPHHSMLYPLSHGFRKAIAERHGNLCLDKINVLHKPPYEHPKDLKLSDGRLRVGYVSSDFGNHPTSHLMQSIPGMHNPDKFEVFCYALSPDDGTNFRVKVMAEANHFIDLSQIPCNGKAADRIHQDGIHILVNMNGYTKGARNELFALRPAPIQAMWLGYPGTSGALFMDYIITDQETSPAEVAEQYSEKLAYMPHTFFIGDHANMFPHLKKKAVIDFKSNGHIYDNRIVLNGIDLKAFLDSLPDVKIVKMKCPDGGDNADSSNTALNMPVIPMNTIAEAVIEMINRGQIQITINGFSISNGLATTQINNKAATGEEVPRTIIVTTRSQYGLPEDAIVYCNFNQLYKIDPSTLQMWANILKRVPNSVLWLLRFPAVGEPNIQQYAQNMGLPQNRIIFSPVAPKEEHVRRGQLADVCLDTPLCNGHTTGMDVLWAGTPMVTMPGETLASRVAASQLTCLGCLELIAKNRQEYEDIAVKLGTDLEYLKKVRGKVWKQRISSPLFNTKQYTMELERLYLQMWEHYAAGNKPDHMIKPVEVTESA
T2 sequence (P62942 whole entry F37V, stated change not applied, other chains not shown, the tested form may be a part): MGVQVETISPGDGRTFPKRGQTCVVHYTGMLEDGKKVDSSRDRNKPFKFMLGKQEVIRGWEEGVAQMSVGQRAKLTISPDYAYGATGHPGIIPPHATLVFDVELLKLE
T1 sequence (P62942 whole entry F37V, stated change not applied, other chains not shown, the tested form may be a part): as above

On to `CC[C@H](C(=O)N1CCCC[C@H]1C(=O)O[C@H](CCc1ccc(OC)c(OC)c1)c1cccc(OCC(=O)NCCOCCOCCCCCCCl)c1)c1cc(OC)c(OC)c(OC)c1` [OGTAC-1, (R)-1-(3-(2-((2-(2-((6-chlorohexyl)oxy)ethoxy)ethyl)amino)-2-oxoethoxy)phenyl)-3-(3,4-dimethoxyphenyl)propyl (S)-1-((S)-2-(3,4,5-trimethoxyphenyl)butanoyl) piperidine-2-carboxylate], for which, in assay [1] (250 nM), the “time at which induction of HTN-CK2α O-GlcNAcylation happened” value is on record as ≤ 4 h and the “time of peak induction of HTN-CK2α O-GlcNAcylation” value is recorded as 8 h. Also, the “fold increase of O-GlcNAcylation on HTN-CK2α, whole cell lysate WB” value in assay [1] (500 nM and 1 μM) is recorded as “higher fold increase of O-GlcNAcylation”. The “concentration of peak induction of HTN-CK2α O-GlcNAcylation” value in assay [1] (24 h treatment) is 1 µM. In assay [1] (IP-WB, fOGT ratio 1:100), the “HTN-CK2α O-GlcNAcylation inducing effect among OGTAC-1/2/3” value is “prevailed among 3 OGTACs”.

On to `CC[C@H](C(=O)N1CCCC[C@H]1C(=O)O[C@H](CCc1ccc(OC)c(OC)c1)c1cccc(OCC(=O)NCCCCCCNC(=O)C[C@@H]2N=C(c3ccc(Cl)cc3)c3c(sc(C)c3C)-n3c(C)nnc32)c1)c1cc(OC)c(OC)c(OC)c1` [OGTAC-4, (R)-1-(3-(2-((6-(2-((S)-4-(4-chlorophenyl)-2,3,9-trimethyl-6H-thieno[3,2-f[]8 1,2,4]triazolo[4,3-a][1,4]diazepin-6-yl)acetamido)hexyl)amino)-2-oxoethoxy)phenyl)-3-(3,4-dimethoxyphenyl)propyl (S)-1-((S)-2-(3,4,5-trimethoxyphenyl)butanoyl)piperidine-2-carboxylate], for which the “fold increase in O-GlcNAc level on BRD4” value in assay [2] is 5 fold. Also, the “O-GlcNAc induction and ternary complex formation after washout” value in assay [3] is given as “persisted post-washout”.

The values above are taken from patent publication US20250035641A1, “COMPOSITIONS AND METHODS RELATED TO PROTEIN LABELING” (The Chinese University of Hong Kong, priority 2023, published 2025).
